Laboratory results: patent publication US12605383B2, “Methods of treating cancer” (priority 2020, dated 2026)

Assays:
KRASG12C PDX models = conditions: Janes et al. 2018; cited from earlier work
LLC cells = test: Cell viability (CCK8) assay, LLC cells; assay type: cell-based, murine; conditions: LLC (KRASG12C mutant), 0.016 up to 7500 nM, 48 h
AE17 cells = test: Cell viability (CCK8) assay, AE17 cells; assay type: cell-based, murine; conditions: AE17 (KRASG12C mutant), 0.016 up to 7500 nM, 48 h
H2122 cells = test: Cell viability (CCK8) assay, H2122 cells; assay type: cell-based, human; conditions: H2122 (KRASG12C mutant), 0.016 up to 7500 nM, 48 h
[1] = test system: viral replication of vvTD and vvTD-IL36γ; assay type: cell-based, vaccinia virus
LLC s.c. tumor = test: Subcutaneous LLC tumor model, tumor size and survival; assay type: in vivo, B6 mice
AE17 s.c. tumor = test: Subcutaneous AE17 tumor model, tumor size and survival; assay type: in vivo, B6 mice
[2] = test system: LLC tumor microenvironment; test: Flow cytometry of immune cells in LLC tumor tissues; assay type: in vivo, B6 mice; conditions: days 6 and 11
[3] = test system: LLC tumor-specific T cells; test: IFN-γ ELISpot assay of TILs from LLC tumors; assay type: in vivo, B6 mice; conditions: 2.0×10^4 CD90.2+ TILs, day 7, co-cultured 1:1 with irradiated LLC cells
MC38 s.c. tumor = test: Subcutaneous MC38 tumor model, tumor size and survival; conditions: for Median survival: MC38 s.c. tumor, FIG. 2F

In the case of `C=CC(=O)N1CCN(c2ncnc3c(F)c(-c4c(O)cccc4F)c(Cl)cc23)CC1` [ARS-1620], the “in vivo antitumor effect” value (KRASG12C PDX models) is given as “tumor regression”.

With `C=CC(=O)N1CCN(c2nc(OC[C@@H]3CCCN3C)nc3c2CCN(c2cccc4cccc(C)c24)C3)C[C@@H]1CC#N` [MRTX1257] the “sensitivity of cancer cells to MRTX1257” value (LLC cells) was “highly sensitive”, the “sensitivity of cancer cells to MRTX1257” value (AE17 cells) was “highly sensitive” and the “sensitivity of cancer cells to MRTX1257” value (H2122 cells) was “more sensitive than A549 cells”. For the same compound, the “effect on viral replication and accumulation of vvTD and vvTD-IL36γ” value [1] was “small inhibitory effect”, the “antitumor effect (tumor size)” value (LLC s.c. tumor; LLC model, MRTX1257 60 mg/kg oral, OVs 2.0e6 pfu/mouse intratumoral, FIG. 3A) was “significant antitumor effect” and the “Median survival” value (LLC s.c. tumor; LLC s.c. tumor, MRTX1257 60 mg/kg, FIG. 2D) was 36 days. For the same compound, the “Median survival” value (LLC s.c. tumor; LLC s.c. tumor, MRTX1257 100 mg/kg, FIG. 2D) was 39.5 days, the “Median survival” value (LLC s.c. tumor; LLC s.c. tumor, MRTX1257 200 mg/kg, FIG. 2D) was 45 days and the “inhibition of tumor growth” value (LLC s.c. tumor; LLC tumor model, 60-200 mg/kg, FIG. 2A) was “good efficacy”. The “Median survival” value (LLC s.c. tumor; LLC tumor, OV i.t. single dose, MRTX1257 60 mg/kg oral daily for 3 weeks, FIG. 3B) was 39 days, the “Median survival” value (LLC s.c. tumor; LLC tumor, combination with PD-1 blockade, FIG. 6E) was 39 days and the “Median survival” value (AE17 s.c. tumor; AE17 s.c. tumor, MRTX1257 60 mg/kg, FIG. 2E) was 40.5 days. For the same compound, the “Median survival” value (AE17 s.c. tumor; AE17 s.c. tumor, MRTX1257 100 mg/kg, FIG. 2E) was 40 days, the “Median survival” value (AE17 s.c. tumor; AE17 s.c. tumor, MRTX1257 200 mg/kg, FIG. 2E) was 47 days and the “inhibition of tumor growth” value (AE17 s.c. tumor; AE17 tumor model, 60-200 mg/kg, FIG. 2B) was “good efficacy”. The “Median survival” value (AE17 s.c. tumor; AE17 tumor, OV i.t. single dose, MRTX1257 60 mg/kg oral daily for 3 weeks, FIG. 3) was 49.5 days, the “CD8+ T cells in tumor tissue” value [2] was “no reduction” and the “number of IFN-γ ELISpot spots” value [3] was ~180 spots. The “sensitivity of cancer cells to MRTX1257” value (MC38 cells; MC38 (non-KRASG12C), 0.016 up to 7500 nM, 48 h) was “less sensitive”, the “drug-mediated cytotoxicity over time” value (MC38 cells; MC38, MRTX1257 at 100 nM, 24-72 h, versus LLC and AE17) was “much more resistant” and the “Median survival” value (MC38 s.c. tumor; MRTX1257 60 mg/kg) was 24 days. The “Median survival” value (MC38 s.c. tumor; MRTX1257 100 mg/kg) was 24 days, the “Median survival” value (MC38 s.c. tumor; MRTX1257 200 mg/kg) was 22 days and the “inhibition of tumor growth” value (MC38 s.c. tumor; MC38 tumor model, 60-200 mg/kg, FIG. 2C) was “no effect”.
